What was measured:
Estrogen receptor beta = Estrogen receptor beta (Homo sapiens, UniProt Q92731); details: sf9; note: in other assays of this panel Not Active means under 50% inhibition at 10 µM
[1] = target: T1, Vasoactive intestinal polypeptide receptor 1 (Homo sapiens, UniProt P32241); type: cell membranes, Membrane; details: ht-29; note: in other assays of this panel Not Active means under 50% inhibition at 10 µM
T1 sequence (P32241 whole entry): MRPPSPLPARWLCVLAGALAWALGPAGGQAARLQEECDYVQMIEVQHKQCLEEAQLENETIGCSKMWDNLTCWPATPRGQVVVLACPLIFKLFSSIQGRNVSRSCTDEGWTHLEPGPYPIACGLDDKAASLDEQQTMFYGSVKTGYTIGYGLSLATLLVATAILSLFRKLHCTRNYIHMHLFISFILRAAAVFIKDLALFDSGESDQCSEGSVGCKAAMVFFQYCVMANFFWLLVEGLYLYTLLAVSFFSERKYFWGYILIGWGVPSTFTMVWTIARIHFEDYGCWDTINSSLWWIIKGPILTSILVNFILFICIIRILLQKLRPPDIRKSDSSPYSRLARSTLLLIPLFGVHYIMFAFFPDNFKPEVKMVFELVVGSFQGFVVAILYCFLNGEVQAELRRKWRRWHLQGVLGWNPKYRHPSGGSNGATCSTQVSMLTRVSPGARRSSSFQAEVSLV

[2] = DRUGMATRIX: Platelet-Derived Growth Factor (PDGF) radioligand binding (ligand: [125I] PDGF); type: cell-based; details: nih3t3; Not Active = under 50% inhibition at 10 µM
[3] = target: T2, C-X-C chemokine receptor type 2 (Homo sapiens, UniProt P25025); type: cell membranes, Membrane; details: cho-k1; note: in other assays of this panel Not Active means under 50% inhibition at 10 µM
T2 sequence (P25025 whole entry): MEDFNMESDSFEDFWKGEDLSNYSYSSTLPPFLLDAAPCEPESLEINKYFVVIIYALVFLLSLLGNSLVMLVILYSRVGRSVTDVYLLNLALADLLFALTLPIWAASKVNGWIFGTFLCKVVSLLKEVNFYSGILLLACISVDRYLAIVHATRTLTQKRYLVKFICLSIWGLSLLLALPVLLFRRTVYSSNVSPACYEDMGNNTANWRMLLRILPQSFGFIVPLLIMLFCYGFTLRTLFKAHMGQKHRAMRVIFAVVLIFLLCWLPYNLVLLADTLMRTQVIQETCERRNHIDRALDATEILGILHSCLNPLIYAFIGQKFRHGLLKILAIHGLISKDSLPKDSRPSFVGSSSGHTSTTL

Glucocorticoid receptor = target: T3, Glucocorticoid receptor (Homo sapiens, UniProt P04150); details: hela s3; note: in other assays of this panel Not Active means under 50% inhibition at 10 µM
T3 sequence (P04150 whole entry): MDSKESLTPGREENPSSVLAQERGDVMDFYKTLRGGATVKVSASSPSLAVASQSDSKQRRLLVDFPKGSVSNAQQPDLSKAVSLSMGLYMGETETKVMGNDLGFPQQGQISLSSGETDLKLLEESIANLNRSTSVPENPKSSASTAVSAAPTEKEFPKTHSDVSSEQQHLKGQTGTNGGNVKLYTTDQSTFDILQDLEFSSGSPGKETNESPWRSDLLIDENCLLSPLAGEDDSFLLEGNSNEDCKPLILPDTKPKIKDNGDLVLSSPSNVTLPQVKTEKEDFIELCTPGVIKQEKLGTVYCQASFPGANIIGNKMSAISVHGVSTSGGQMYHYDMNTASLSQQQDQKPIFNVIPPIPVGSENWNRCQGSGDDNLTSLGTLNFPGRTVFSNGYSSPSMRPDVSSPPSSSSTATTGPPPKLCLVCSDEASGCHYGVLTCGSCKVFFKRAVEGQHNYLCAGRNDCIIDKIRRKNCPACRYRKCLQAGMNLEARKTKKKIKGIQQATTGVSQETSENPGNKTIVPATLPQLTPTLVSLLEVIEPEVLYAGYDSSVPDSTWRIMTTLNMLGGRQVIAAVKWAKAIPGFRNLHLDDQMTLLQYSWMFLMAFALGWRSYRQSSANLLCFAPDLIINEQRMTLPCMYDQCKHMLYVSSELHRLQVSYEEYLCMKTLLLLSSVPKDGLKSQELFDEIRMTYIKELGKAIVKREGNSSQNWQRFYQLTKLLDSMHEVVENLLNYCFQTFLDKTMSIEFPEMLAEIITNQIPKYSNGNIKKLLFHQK

[4] = DRUGMATRIX: Imidazoline I2, Central radioligand binding (ligand: [3H] Idazoxan); type: cell membranes, Rattus norvegicus, Wistar, Cerebral cortex, Membrane; details: Not Active = under 50% inhibition at 10 µM
[5] = target: Voltage-gated inwardly rectifying potassium channel KCNH2 (Homo sapiens, UniProt Q12809); details: hek293; note: in other assays of this panel Not Active means under 50% inhibition at 10 µM
Voltage-gated inwardly rectifying potassium channel KCNH2, sequence (Q12809 whole entry): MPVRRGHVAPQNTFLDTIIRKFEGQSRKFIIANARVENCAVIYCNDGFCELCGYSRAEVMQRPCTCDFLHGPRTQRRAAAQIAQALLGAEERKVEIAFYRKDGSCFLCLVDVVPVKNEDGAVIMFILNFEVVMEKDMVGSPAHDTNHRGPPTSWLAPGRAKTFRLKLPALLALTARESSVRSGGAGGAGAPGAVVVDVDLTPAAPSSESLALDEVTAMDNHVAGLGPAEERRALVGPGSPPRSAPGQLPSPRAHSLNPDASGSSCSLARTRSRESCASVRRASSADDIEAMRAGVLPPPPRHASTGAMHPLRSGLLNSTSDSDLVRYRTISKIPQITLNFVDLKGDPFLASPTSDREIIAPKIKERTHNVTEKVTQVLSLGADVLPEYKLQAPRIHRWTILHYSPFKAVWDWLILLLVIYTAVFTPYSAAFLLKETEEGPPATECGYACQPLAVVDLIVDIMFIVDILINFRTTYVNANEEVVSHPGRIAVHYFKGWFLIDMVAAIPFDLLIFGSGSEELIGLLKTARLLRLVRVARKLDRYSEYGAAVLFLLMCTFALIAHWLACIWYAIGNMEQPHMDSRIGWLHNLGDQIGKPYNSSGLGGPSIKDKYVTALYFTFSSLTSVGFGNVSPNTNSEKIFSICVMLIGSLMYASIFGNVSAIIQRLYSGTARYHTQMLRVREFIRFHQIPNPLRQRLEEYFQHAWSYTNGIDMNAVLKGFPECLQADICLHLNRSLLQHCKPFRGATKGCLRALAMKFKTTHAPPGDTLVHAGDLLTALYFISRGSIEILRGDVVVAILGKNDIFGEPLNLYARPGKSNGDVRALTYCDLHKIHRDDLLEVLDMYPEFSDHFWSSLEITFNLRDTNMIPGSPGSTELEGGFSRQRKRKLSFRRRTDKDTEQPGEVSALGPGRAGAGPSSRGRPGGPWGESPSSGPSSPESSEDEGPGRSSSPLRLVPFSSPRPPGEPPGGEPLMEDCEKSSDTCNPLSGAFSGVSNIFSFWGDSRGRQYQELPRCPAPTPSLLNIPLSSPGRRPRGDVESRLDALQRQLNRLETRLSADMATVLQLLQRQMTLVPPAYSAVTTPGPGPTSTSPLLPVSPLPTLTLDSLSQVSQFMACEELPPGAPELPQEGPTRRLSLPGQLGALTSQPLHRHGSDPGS

Caspase-1 = target: T4, Caspase-1 (Homo sapiens, UniProt P29466); set-up: species or system Escherichia coli
T4 sequence (P29466 whole entry): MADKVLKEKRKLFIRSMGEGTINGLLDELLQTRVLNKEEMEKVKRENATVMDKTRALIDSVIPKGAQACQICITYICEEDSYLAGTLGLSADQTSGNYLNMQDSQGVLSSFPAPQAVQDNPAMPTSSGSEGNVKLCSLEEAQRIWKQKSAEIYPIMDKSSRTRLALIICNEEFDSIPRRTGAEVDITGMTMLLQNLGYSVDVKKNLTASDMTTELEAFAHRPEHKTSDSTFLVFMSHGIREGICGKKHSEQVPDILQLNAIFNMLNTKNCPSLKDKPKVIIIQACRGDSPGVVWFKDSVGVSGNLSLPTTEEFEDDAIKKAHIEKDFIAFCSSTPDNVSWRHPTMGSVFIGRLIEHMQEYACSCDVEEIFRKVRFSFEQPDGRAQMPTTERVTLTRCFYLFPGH

Estrogen receptor beta, sequence (Q92731 whole entry): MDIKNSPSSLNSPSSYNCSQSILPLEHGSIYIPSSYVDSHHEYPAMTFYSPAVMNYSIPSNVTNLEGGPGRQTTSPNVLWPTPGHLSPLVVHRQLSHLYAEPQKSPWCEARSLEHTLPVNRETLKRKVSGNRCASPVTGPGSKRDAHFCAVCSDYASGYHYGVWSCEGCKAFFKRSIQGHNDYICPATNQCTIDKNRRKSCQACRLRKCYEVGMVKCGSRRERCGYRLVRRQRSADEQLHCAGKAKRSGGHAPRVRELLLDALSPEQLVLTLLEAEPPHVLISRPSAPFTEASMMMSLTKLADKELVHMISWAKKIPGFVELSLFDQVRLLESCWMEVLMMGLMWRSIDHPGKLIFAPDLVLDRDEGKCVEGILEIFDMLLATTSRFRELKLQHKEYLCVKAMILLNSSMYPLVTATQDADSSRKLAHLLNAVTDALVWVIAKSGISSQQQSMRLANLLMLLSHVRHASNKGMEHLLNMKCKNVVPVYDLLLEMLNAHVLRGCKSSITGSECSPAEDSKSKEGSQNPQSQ

O=C(Nc1ccc(Br)cc1)c1cc(Br)cc(Br)c1O [TRIBROMSALAN]
Not Active: IC50 (Estrogen receptor beta) | IC50 [1] | IC50 [2] | Ki [2] | IC50 [3] | IC50 (Glucocorticoid receptor) | IC50 [4] | Ki [4] | IC50 [5] | Ki [5] | IC50 (Caspase-1)

CC(c1cc2ccccc2s1)N(O)C(N)=O (centres undefined) [ZILEUTON]
Not Active: IC50 (Estrogen receptor beta) | IC50 [1] | IC50 [2] | Ki [2] | IC50 [3] | IC50 (Glucocorticoid receptor) | IC50 [4] | Ki [4] | IC50 [5] | Ki [5] | IC50 (Caspase-1)

MANGANESE CHLORIDE ANHYDROUS
Not Active: IC50 (Estrogen receptor beta) | Ki (Estrogen receptor beta) | IC50 [1] | Ki [1] | IC50 [2] | Ki [2] | IC50 [3] | Ki [3] | IC50 (Glucocorticoid receptor) | Ki (Glucocorticoid receptor) | IC50 [4] | Ki [4] | IC50 [5] | Ki [5] | IC50 (Caspase-1) | Ki (Caspase-1)

SODIUM ORTHOVANAD
Not Active: IC50 (Estrogen receptor beta) | Ki (Estrogen receptor beta) | IC50 [1] | Ki [1] | IC50 [2] | Ki [2] | IC50 [3] | Ki [3] | IC50 (Glucocorticoid receptor) | Ki (Glucocorticoid receptor) | IC50 [4] | Ki [4] | IC50 [5] | Ki [5] | IC50 (Caspase-1) | Ki (Caspase-1)

Source: ChEMBL document CHEMBL1909046, “DrugMatrix in vitro pharmacology data”
